Laboratory results published in patent US20220306728A1 (priority 2019, published 2022).
Where two headings read alike, the source gives them in different places.

Key:
Experiment in all cases: microbe, parasite or virus in culture
H3N2 and H1N1 strains = assay type: cell-based, influenza A virus
H1N1 virus = assay type: cell-based; details: Influenza A virus, H1N1, MDCK
H3N2 virus = assay type: cell-based; details: Influenza A virus, H3N2, MDCK

**Q.** `COC(=O)OCOc1c2n(ccc1=O)N([C@@H]1c3ccccc3SCc3c1ccc(F)c3F)[C@@H]1COCCN1C2=O` [baloxavir marboxil, reference compound] was tested. Which IC50 (H3N2 and H1N1 strains; read-out: IC50) did it give?
**A.** Its IC50 is 2.3 to 4.9 nM.

**Q.** With `CCOC(=O)C1=C[C@@H](OC(CC)CC)[C@H](NC(C)=O)[C@@H](N)C1` [oseltamivir] as the compound, how does the IC50 (H1N1 virus) read?
**A.** Its IC50 is 9.1 nM.

**Q.** What about the IC50 (H3N2 virus) of the same compound?
**A.** The IC50 was 7 nM.

**Q.** How did the IC50 (H3N2 and H1N1 strains; Influenza A virus, MDCK) turn out when `CC(=O)N[C@H]1[C@H]([C@H](O)[C@H](O)CO)OC(C(=O)O)=C[C@@H]1N=C(N)N` [zanamivir, reference compound] was run?
**A.** Its IC50 is 10.7 to 13.7 nM.
